Test results reported in patent publication US20210260199A1, “NOVEL NARINGENIN/LIPOIC ACID CONJUGATE COMPOUND AND USE THEREOF” (priority 2018, published 2021).
pIC50: −log10 of the molar value.

Tests used:
[1] = Antioxidant capacity, radical scavenging ability by DPPH (Blois method); conditions: absorbance at 517 nm
Method: The antioxidant capacity of the novel compounds was measured by using a Blois method of measuring radical scavenging ability by DPPH which was widely known. A solution of DPPH by concentration was prepared in ethanol, and the initial absorbance was measured at 517 nm, and the absorbance over time was measured by adding a solution of the novel compound and the DPPH solution. The antioxidant capacity was expressed in % and an IC50 value was obtained using a calculation program.

mushroom tyrosinase = assay: Inhibitory effect on tyrosinase; type: biochemical; conditions: L-tyrosine substrate, pH 6.5, 37° C., 30 minutes; read-out: Inhibition of tyrosinase
Method: The inhibitory effect on tyrosinase related to skin whitening and melanin formation was measured using the following experimental method. 10 μL of each sample solution at a different concentration and 20 μL of mushroom tyrosinase in a phosphate buffer (pH 6.5) were added to a 96-well microplate and added with 170 μL of a mixed solution in which a 1 mM L-tyrosine solution, a 50 mM potassium phosphate buffer (pH 6.5) and distilled water were contained in a ratio of 10:10:9. Samples dissolved in DMSO were diluted 30 times with distilled water and used. After incubation at 37° C. for 30 minutes, the absorbance of the reaction solution was measured at 490 nm using a GENios microplate reader (Tecan Austria GmbH, Austria). The inhibition degree of tyrosinase by the addition of the sample was expressed as a 50% inhibition rate (IC50).

cerebral infarction site = assay: Transient middle cerebral artery occlusion (t-MCAO), administration immediately before artery occlusion; type: in vivo, Sprague-Dawley rats; conditions: for size of the cerebral infarction site compared to the vehicle: 30 min occlusion, 5 h 30 min reperfusion, FIG. 3(A); for size of the cerebral infarction site, dependence on concentration: FIG. 3(B) and (C)
Method: As a research model for cerebral infarction, transient middle cerebral artery occlusion (t-MCAO) in animals (rats) was used to examine the infarct size of the cerebral infarction site and the degree of its protective action. First, in an animal model in which the middle cerebral artery of Sprague-Dawley rats (300 to 350 g; Charles River, Montreal, PQ, CAN) was closed for 30 minutes to create a cerebral infarction and then reperfused for 5 hours and 30 minutes (t-MCAO), naringenin and RA1 (VANL-100) were administered immediately before artery occlusion and compared with a case of administration of a vehicle.

[2] = tested on: cortex culture containing neurons and glia; assay: Brain cell protection in apoptosis induced by oxygen-glucose deprivation (OGD)/reoxygenation, LDH release; type: cell-based, rat; conditions: for protective effect on brain cells (apoptosis, % LDH release): OGD then 24 hours normoxic, 6 concentrations, FIG. 1
Method: A […] cortex culture medium containing neurons and glia was obtained from fetal rats during the gestation period of 17 to 18 days. That is, an embryonic tissue was extracted from a pregnant Sprague-Dawley and transferred to a Hanks Balanced Salt solution (Gibco) cooled with ice. The cortical brain tissue was sterile and thinly dissected and stored in cold HBSS before digestion with 0.0125% trypsin. The isolated cells were placed in a 96 well plate coated with poly-L-lysine (1 mg/ml, Sigma-Aldrich) in a Dulbecco's modified eagle medium (Gibco) containing 10% iron-supplemented fetal calf serum (Hyclone) and 1% antibiotic/antimycotic (Gibco) at 37° C. at a seeding density of 50,000 cells/well. Then, after attaching the culture medium overnight in a 37° C. incubator containing 5% CO2 and atmospheric oxygen, at the next day, the medium was replaced with a warm Neurobasal A medium (Gibco) containing 0.5 mmol/L of L-glutamine (Gibco) and supplemented with 1% B27, N2 and antibiotics/antimycotic (Gibco). In the culture for 14 to 16 days, half of the medium was changed every 4 days. After 14 days of cell culture, the culture medium was replaced with a vehicle (0.1% DMSO or EtOH) or an oxygen-free-glucose Neurobasal A containing an experimental substance (RA1, naringenin or lipoic acid) at 6 concentrations. After oxygen-glucose deprivation (OGD), the same volume of Neurobasal A with the same novel substance concentration was added and transferred to a normoxic condition (5% CO2 and atmospheric oxygen) state for 24 hours. Cellular activity was evaluated by measuring LDH release of damaged cells. The effects of lipoic acid, naringenin, and the novel substance RA1 on apoptosis (% LDH release) following ischemia/reoxygenation-reperfusion (I/R) were performed in the in vitro cell culture.

[3] = tested on: cortex culture containing neurons and glia; assay: Total antioxidant capacity assay after OGD and I/R (Antioxidant Assay Kit); type: cell-based, rat; conditions: FIG. 2
Method: Several groups of plates were subjected to the OGD (oxygen-glucose deprivation) and I/R (ischemia-reperfusion), and the total antioxidant capacity was measured using a general commercial instrument (Antioxidant Assay Kit, Sigma-Aldrich). The average value of the three experiments was obtained and the antioxidant capacity was expressed in […].

pIC50 (mushroom tyrosinase)	Structure (SMILES)	Antioxidant capacity (%) [1]	also measured
3.88	O=C(CCCCC1CCSS1)Oc1ccc(C2CC(=O)c3c(O)cc(OC(=O)CCCCC4CCSS4)cc3O2)cc1 (stereo not shown) [RA3, 4-(7-((5-(1,2-dithiolan-3-yl)pentanoyl)oxy)-5-hydroxy-4-oxochroman-2-yl)phenyl 5-(1,2-dithiolan-3-yl)pentanoate]	12.4%	–
< 3.46	O=C(CCCCC1CCSS1)OCCOCCOCCOCCOc1cc(O)c2c(c1)OC(c1ccc(O)cc1)CC2=O (stereo not shown) [RA7, 2-(2-(2-(2-((5-hydroxy-2-(4-hydroxyphenyl)-4-oxochroman-7-yl)oxy)ethoxy)ethoxy)ethoxy)ethyl 5-(1,2-dithiolan-3-yl)pentanoate]	–	–
4.49	O=C(CCCCC1CCSS1)Oc1cc(O)c2c(c1)OC(c1ccc(O)cc1)CC2=O (stereo not shown) [RA1, 5-hydroxy-2-(4-hydroxyphenyl)-4-oxochroman-7-yl 5-(1,2-dithiolan-3-yl)pentanoate]	–	size of the cerebral infarction site compared to the vehicle (cerebral infarction site): significantly reduced; size of the cerebral infarction site, dependence on concentration (cerebral infarction site): reduced the size of the cerebral infarction site depending on a concentration; effective concentration, times lower than naringenin (10 mg/kg) (cerebral infarction site; RA1 1×10^−3 mg/kg against naringenin 10 mg/kg): 10,000 times; size of the cerebral infarction site (cerebral infarction site; RA1 at 1×10^−3 mg/kg): strongly reduced; protective effect on brain cells, times stronger than naringenin or lipoic acid (cerebral infarction site; animal brain infarction model, very low concentration): ~10,000 times; strength of protective effect on brain cells at a very low concentration ([2]; FIG. 1D, comparison with lipoic acid and naringenin): about 100 times; protective effect on brain cells (apoptosis, % LDH release) [2]: very strong protective effect; total antioxidant capacity ([3]; 2.5 to 1250 ummol/L): strong protective effect
< 3.46	O=C(CCCCC1CCSS1)OCCOCCOCCOCCOCCOCCOc1cc(O)c2c(c1)OC(c1ccc(O)cc1)CC2=O (stereo not shown) [RA9, 17-((5-hydroxy-2-(4-hydroxyphenyl)-4-oxochroman-7-yl)oxy)-3,6,9,12,15-pentaoxaheptadecyl 5-(1,2-dithiolan-3-yl)pentanoate]	24%	–
3.46	O=C(CCCCC1CCSS1)OCCOCCOCCOc1cc(O)c2c(c1)OC(c1ccc(O)cc1)CC2=O (stereo not shown) [RA6, 2-(2-(2-((5-hydroxy-2-(4-hydroxyphenyl)-4-oxochroman-7-yl)oxy)ethoxy)ethoxy)ethyl 5-(1,2-dithiolan-3-yl)pentanoate]	14.6%	–
4.24	O=C(CCCCC1CCSS1)Oc1ccc(C2CC(=O)c3c(O)cc(O)cc3O2)cc1 (stereo not shown) [RA2, 4-(5,7-dihydroxy-4-oxochroman-2-yl)phenyl 5-(1,2-dithiolan-3-yl)pentanoate]	77%	–
< 3.46	O=C(CCCCC1CCSS1)OCCOCCOCCOCCOCCOc1cc(O)c2c(c1)OC(c1ccc(O)cc1)CC2=O (stereo not shown) [RA8, 14-((5-hydroxy-2-(4-hydroxyphenyl)-4-oxochroman-7-yl)oxy)-3,6,9,12-tetraoxatetradecyl 5-(1,2-dithiolan-3-yl)pentanoate]	11.5%	–
3.65	O=C(CCCCC1CCSS1)OCCOCCOc1cc(O)c2c(c1)OC(c1ccc(O)cc1)CC2=O (stereo not shown) [RA5, 2-(2-((5-hydroxy-2-(4-hydroxyphenyl)-4-oxochroman-7-yl)oxy)ethoxy) ethyl 5-(1,2-dithiolan-3-yl)pentanoate]	28.5%	–

The remaining lines, values behind:

Structure (SMILES)	pIC50 (mushroom tyrosinase)	Antioxidant capacity (%) [1]	also measured
O=C(O)CCCC[C@@H]1CCSS1 (racemic) [Lipoic acid]	4.36	66.8%	protective effect on brain cells (apoptosis, % LDH release) [2]: hardly showed a protective effect; total antioxidant capacity ([3]; 0.25 and 25 ummol/L): no antioxidant effect; total antioxidant capacity ([3]; high concentrations of 125 and 1250 ummol/L): great antioxidant capacity
OC[C@H]1O[C@@H](Oc2ccc(O)cc2)[C@H](O)[C@@H](O)[C@@H]1O [Arbutin, reference compound]	3.58	36%	–
O=C1C[C@@H](c2ccc(O)cc2)Oc2cc(O)cc(O)c21 [Naringenin]	4.09	58.5%	size of the cerebral infarction site compared to the vehicle (cerebral infarction site): significantly reduced; size of the cerebral infarction site, dependence on concentration (cerebral infarction site): reduced the size of the cerebral infarction site depending on a concentration; protective effect on brain cells (apoptosis, % LDH release) [2]: slight effect at one concentration
O=c1cc(CO)occ1O [Kojic acid, reference compound]	–	28%	–
O=C(CCCCC1CCSS1)OCCOc1cc(O)c2c(c1)OC(c1ccc(O)cc1)CC2=O (stereo not shown) [RA4, 2-((5-hydroxy-2-(4-hydroxyphenyl)-4-oxochroman-7-yl)oxy)ethyl 5-(1,2-dithiolan-3-yl)pentanoate]	3.59	22%	–
